Experimental data reported in patent US5591891A, “N-[Mercaptoacyl (amino acid or peptide ) ] compounds and S-lipophiIic aliphatic carbonyl derivatives thereof as antihypertensives” (Institut National de la Sante et de la Recherche Medicale …, priority 1994, dated 1997).

Experiments:
[1] = molecular target: neutral endopeptidase (NEP) (Homo sapiens, UniProt P08473); test: Enzymatic inhibition of neutral endopeptidase, [3H]D-Ala2-Leu-enkephalin as substrate; format: biochemical
Experimental: The enzymatic inhibitory properties of compounds according to the present invention are measured using [^3 H]D-Ala^2 -Leu-enkephalin as a substrate for neutral endopeptidase as described previously by Llorens et al., Biochem. Biophys.

[2] = molecular target: peptidyldipeptidase A (ACE) (Homo sapiens, UniProt P12821); test: Enzymatic inhibition of peptidyldipeptidase A, Z-Phe-His-Leu as substrate; format: biochemical
Chain of peptidyldipeptidase A (ACE) (P12821 30-1306, species assumed): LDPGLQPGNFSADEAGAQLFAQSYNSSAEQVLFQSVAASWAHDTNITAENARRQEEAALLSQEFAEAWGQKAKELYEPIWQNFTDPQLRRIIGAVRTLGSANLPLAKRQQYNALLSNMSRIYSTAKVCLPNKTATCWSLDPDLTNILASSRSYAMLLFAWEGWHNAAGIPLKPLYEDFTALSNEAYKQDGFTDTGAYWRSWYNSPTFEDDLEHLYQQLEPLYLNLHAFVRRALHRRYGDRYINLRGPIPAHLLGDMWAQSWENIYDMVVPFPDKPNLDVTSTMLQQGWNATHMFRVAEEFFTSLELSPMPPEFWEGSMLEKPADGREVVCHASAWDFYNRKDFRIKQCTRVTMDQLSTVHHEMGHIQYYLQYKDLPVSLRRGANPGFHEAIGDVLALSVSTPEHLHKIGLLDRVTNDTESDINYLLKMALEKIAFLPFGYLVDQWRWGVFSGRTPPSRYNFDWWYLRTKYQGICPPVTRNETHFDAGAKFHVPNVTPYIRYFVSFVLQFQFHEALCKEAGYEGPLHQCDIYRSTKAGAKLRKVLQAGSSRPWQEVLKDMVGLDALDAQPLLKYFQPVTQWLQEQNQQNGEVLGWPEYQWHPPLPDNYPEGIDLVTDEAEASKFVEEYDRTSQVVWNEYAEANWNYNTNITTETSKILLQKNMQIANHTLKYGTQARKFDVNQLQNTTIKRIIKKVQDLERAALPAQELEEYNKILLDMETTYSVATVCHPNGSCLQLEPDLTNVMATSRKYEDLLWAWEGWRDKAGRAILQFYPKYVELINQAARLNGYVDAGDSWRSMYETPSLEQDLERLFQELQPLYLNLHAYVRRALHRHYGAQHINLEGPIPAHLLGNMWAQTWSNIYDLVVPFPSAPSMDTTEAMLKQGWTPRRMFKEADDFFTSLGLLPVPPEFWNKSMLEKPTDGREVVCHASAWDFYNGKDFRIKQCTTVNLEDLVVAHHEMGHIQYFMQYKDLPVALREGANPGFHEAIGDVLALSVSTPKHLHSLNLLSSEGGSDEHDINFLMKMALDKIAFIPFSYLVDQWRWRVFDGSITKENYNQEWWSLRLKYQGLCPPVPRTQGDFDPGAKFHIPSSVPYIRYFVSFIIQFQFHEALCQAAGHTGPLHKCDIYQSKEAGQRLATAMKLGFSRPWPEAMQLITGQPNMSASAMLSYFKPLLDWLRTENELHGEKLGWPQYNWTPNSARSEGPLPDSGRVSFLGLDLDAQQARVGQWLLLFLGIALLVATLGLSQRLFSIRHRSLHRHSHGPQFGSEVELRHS

Chain of neutral endopeptidase (NEP) (P08473 whole entry, species assumed): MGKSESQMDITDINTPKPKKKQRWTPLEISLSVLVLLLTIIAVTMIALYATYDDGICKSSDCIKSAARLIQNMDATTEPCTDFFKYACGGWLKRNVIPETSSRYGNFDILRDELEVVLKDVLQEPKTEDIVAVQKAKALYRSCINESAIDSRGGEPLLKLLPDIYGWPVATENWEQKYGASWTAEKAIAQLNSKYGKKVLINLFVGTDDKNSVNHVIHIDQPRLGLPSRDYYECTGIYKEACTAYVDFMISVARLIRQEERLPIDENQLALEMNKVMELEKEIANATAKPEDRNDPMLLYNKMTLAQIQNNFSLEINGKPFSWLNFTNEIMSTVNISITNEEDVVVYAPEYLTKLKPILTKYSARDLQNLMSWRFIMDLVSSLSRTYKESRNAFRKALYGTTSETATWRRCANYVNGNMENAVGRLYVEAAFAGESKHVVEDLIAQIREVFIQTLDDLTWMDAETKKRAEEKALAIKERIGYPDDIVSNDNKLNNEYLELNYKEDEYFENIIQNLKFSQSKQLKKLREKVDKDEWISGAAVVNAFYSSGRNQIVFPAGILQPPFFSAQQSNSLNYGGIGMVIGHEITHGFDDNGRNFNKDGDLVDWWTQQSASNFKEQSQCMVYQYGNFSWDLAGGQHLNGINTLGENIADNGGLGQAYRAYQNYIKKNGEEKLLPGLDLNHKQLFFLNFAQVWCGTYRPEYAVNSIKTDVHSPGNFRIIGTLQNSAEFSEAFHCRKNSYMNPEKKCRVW

| Structure (SMILES) | IC50 ([1]; Table IV) [nM] | IC50 ([2]; Table IV) [nM] | IC50 ([1]; Table III) [nM] | IC50 ([2]; Table III) [nM] |
| --- | --- | --- | --- | --- |
| CC(c1ccccc1)C(CSS)C(=O)N[C@@H](Cc1ccc(O)cc1)C(=O)O (stereo partly shown) [88(B), N-(2-mercaptothiomethyl-1-oxo-3-phenylbutyl)tyrosine] | 3.1 | 52 | – | – |
| CC(C)[C@H](NC(=O)C(S)Cc1ccccc1)C(=O)N[C@@H](Cc1ccc(O)cc1)C(=O)O (stereo partly shown) [Example 19, N-(2-Mercapto-3-phenylpropanoyl)-Val-Tyr] | – | – | 5 ± 2 | 4 ± 1 |
| CC[C@H](C)[C@H](NC(=O)C(S)Cc1ccccc1)C(=O)N[C@@H](Cc1ccc(O)cc1)C(=O)OC (stereo partly drawn) [Example 20, N-(2-Mercapto-3-phenylpropanoyl)-Ile-Tyr-OMe] | – | – | 3.2 ± 0.3 | 2.5 ± 0.1 |
| CCC(C)C(NC(=O)C(S)Cc1ccccc1)C(=O)N1CCCCC1C(=O)O (stereo not shown) [Example 21, N-(2-Mercapto-3-phenylpropanoyl)-Ile-Pip] | – | – | 5 ± 2 | 2 ± 1 |
| CCCC[C@H](NC(=O)C(S)Cc1ccccc1)C(=O)N[C@@H](Cc1ccc(O)cc1)C(=O)O (stereo partly shown) [Example 22, N-(2-Mercapto-3-phenylpropanoyl)-Nle-Tyr] | – | – | 18 ± 2 | 30 ± 5 |
| CC(C)C[C@H](NC(=O)C(S)Cc1ccccc1)C(=O)N[C@@H](Cc1ccc(O)cc1)C(=O)O (stereo partly shown) [Example 23, N-(2-Mercapto-3-phenylpropanoyl)-Leu-Tyr] | – | – | 3 ± 2 | 30 ± 5 |
| CCC(C)C(S)C(=O)N[C@@H](Cc1ccccc1)C(=O)N[C@@H](Cc1ccc(O)cc1)C(=O)O (stereo partly shown) [Example 24, N-(2-Mercapto-3-methylpentanoyl)-Phe-Tyr] | – | – | 3 ± 1 | 8 ± 2 |
| CCC(C)C(S)C(=O)NC(C(=O)N[C@@H](Cc1ccc(O)cc1)C(=O)O)C(C)C (stereo partly shown) [Example 25, N-(2-Mercapto-3-methylpentanoyl)-Val-Tyr] | – | – | 5 ± 2 | 2 ± 0.5 |
| CC(C)C(NC(=O)C(S)CCc1ccccc1)C(=O)N[C@@H](Cc1ccc(O)cc1)C(=O)O (stereo partly shown) [Example 26, N-(2-Mercapto-4-phenylbutanoyl)-Val-Tyr] | – | – | 10 ± 1 | 8 ± 2 |
| CC[C@H](C)[C@H](NC(=O)C(S)C(C)C)C(=O)N[C@@H](Cc1ccc(O)cc1)C(=O)O (stereo partly shown) [Example 27, N-(2-Mercapto-3-methylbutanoyl)-Ile-Tyr] | – | – | 1.4 ± 0.2 | 0.3 ± 0.1 |

Results, then the molecule that gave them:

| IC50 ([1]; Table IV) [nM] | IC50 ([2]; Table IV) [nM] | IC50 ([1]; Table III) [nM] | IC50 ([2]; Table III) [nM] | Structure (SMILES) |
| --- | --- | --- | --- | --- |
| – | – | 4.5 ± 0.5 | 3.5 ± 0.5 | CC[C@H](C)[C@H](NC(=O)C(S)c1ccccc1)C(=O)N[C@@H](Cc1ccc(O)cc1)C(=O)O (stereo partly shown) [Example 28, N-(2-Mercapto-2-phenylacetyl)-Ile-Tyr] |
| – | 1.8 | – | – | CC(c1ccccc1)C(CS)C(=O)N[C@@H](Cc1ccc(O)cc1)C(=O)O (stereo partly shown) [Example 61, N-(2-Mercaptomethyl-1-oxo-3-phenylbutyl)tyrosine] |
| 1.3 | 25 | – | – | CC(c1ccccc1)C(CS)C(=O)NCC(=O)O (stereo not shown) [Example 63, N-(2-Mercaptomethyl-1-oxo-3-phenylbutyl)glycine] |
| 4 | 71 | – | – | CC(c1ccccc1)C(CS)C(=O)N[C@@H](COCc1ccccc1)C(=O)O (stereo partly shown) [Example 65, N-(2-Mercaptomethyl-1-oxo-3-phenylbutyl)-O-benzylserine] |
| 2 | 2.8 | – | – | CC(c1ccccc1)C(CS)C(=O)N[C@@H](C)C(=O)O (stereo partly shown) [Example 67, N-(2-Mercaptomethyl-1-oxo-3-phenylbutyl)alanine] |
| – | 5.8 | – | – | CCCC[C@H](NC(=O)C(CS)C(C)c1ccccc1)C(=O)O (stereo partly shown) [Example 69, N-(2-Mercaptomethyl-1-oxo-3-phenylbutyl)norleucine] |
| 1.3 | 7.9 | – | – | C[C@H](NC(=O)C(CS)C1CCc2ccccc21)C(=O)O (stereo partly shown) [Example 71, N-[3-Mercapto-2-(1-indanyl)-1-oxopropyl]alanine] |
| 3.5 | 6.2 | – | – | CC(c1ccc(O)cc1)C(CS)C(=O)N[C@@H](C)C(=O)O (stereo partly shown) [Example 73, N-[2-Mercaptomethyl,3-(4-hydroxyphenyl)-1-oxobutyl]alanine] |
| 1.8 | 3.5 | – | – | CC(c1ccc(O)cc1)C(CS)C(=O)N[C@@H](Cc1ccc(O)cc1)C(=O)O (stereo partly shown) [Example 75, N-[2-Mercaptomethyl-3-(4-hydroxyphenyl)-1-oxobutyl]tyrosine] |
| 1.9 | 8.5 | – | – | CC(=O)SCC(C(=O)N[C@@H](C)C(=O)O)C(C)c1ccc(F)cc1 (stereo partly shown) [Example 78, N-[2-Acetylthiomethyl-3-(4-fluorophenyl)-1-oxobutyl]alanine] |
| 4.8 | 5.9 | – | – | CC(=O)SC(C(=O)N[C@@H](Cc1ccc(O)cc1)C(=O)O)C(C)c1ccc(F)cc1 (stereo partly shown) [Example 80, N-[2-Acetylthio-3-(4-fluorophenyl)-1-oxobutyl]tyrosine] |
| 3 | 5 | – | – | CC(c1ccc(F)c(F)c1)C(CS)C(=O)N[C@@H](C)C(=O)O (stereo partly shown) [Example 82, N-[2-Mercaptomethyl-3-(3,4-difluorophenyl)-1-oxobutyl]alanine] |
| 6.3 | 3.5 | – | – | CC(c1ccc(F)c(F)c1)C(CS)C(=O)N[C@@H](Cc1ccc(O)cc1)C(=O)O (stereo partly shown) [Example 84, N-[2-Mercaptomethyl-3-(3,4-difluorophenyl)-1-oxobutyl]tyrosine] |
| 1 | 3 | – | – | CC(c1ccccc1)C(CSS)C(=O)N[C@@H](Cc1ccc(O)cc1)C(=O)O (stereo partly shown) [Example 88(A), N-(2-Mercaptothiomethyl-1-oxo-3-phenylbutyl)tyrosine] |
